Here are results for five compounds from patent publication US10815235B2, “Polycyclic compounds and uses thereof” (priority 2017, dated 2020).

Where two headings read alike, the source gives them in different places.

Assay [1] has as its target T1, Serotonin 5-HT7 receptor (Homo sapiens, UniProt P34969).
T1 construct: expressed in transfected cells; host or cells: CHO-K1
Description: cAMP HTRF Assay for Gs Coupled Receptors, agonist and antagonist mode. The format is cell-based. The method, then: Antagonist and agonist activities were shown using a cAMP HTRF Assay for Gs Coupled Receptors. The assay was prepared as follows: CHO-K1 cells expressing recombinant human and Serotonin 5-HT7 receptors were grown, prior to analysis, in media without antibiotic. The cells were detached by gentle flushing with PBS-EDTA (5 mM EDTA), recovered by centrifugation, and resuspended in assay buffer (KRH: 5 mM KCl, 1.25 mM MgSO4, 124 mM NaCl, 25 mM HEPES, 13.3 mM Glucose, 1.25 mM KH2PO4, 1.45 mM CaCl2, 0.5 g/l BSA).
To determine agonist activity (96 well), 12 μL of cells were mixed with 12 μL of the test compound at increasing concentrations and then incubated 30 min at room temperature. After addition of the lysis buffer and 1 hour incubation, cAMP concentrations were estimated according to the manufacturer specification.
Antagonist activity was determined in 96 well plates: 12 μL of cells were mixed with 6 μL of the test compound at increasing concentrations and then incubated 10 min. Thereafter 6 μL of the reference agonist was added at a final concentration corresponding to the historical EC80. The plates were then incubated for 30 min at room temperature. After addition of the lysis buffer and 1 hour incubation, cAMP concentrations were estimated according to the manufacturer specification. IC50 values were used to determine whether a compound acted as an antagonist.
On the technique in general: In TR-FRET formats the signal depends on donor and acceptor labels being close together.

The target of assay [2] is Serotonin 5-HT1D receptor (Homo sapiens, UniProt P28221). Description: GTPγS Scintillation Proximity Assay, agonist and antagonist mode. Type of assay: biochemical. The method, then: (§1) Antagonist and agonist activities were determined using a GTPγS Scintillation Proximity Assay. The assay was prepared as follows: Membrane extracts were prepared from recombinant human Dopamine D2L, D3; Serotonin 5-HT1A, 5-HT1B, 5-HT1D and 5-HT1F receptors.
(§2) Samples were tested by proprietary biological assays by Ogeda S. A., Euroscreen FAST Business Unit, Rue Adrienne Bolland, 47 B-6041 Gosselies, Belgium. Each protein assay was prepared using the following conditions.
5-HT1D • Assay buffer: 20 mM HEPES pH 7.4; 200 mM NaCl, 10 μg/ml saponin, 3 mM MgCl2; • Membranes: recombinant 5-HT1D membrane extracts thawed on ice and diluted in assay buffer to give […] and kept on ice; • GDP: diluted in assay buffer to give a 30 μM working solution (3 μM final concentration); • Beads: PVT-WGA (Perkin Elmer, RPNQ001), diluted in assay buffer at 50 mg/ml (0.5 mg/10 μl); and • GTPγ^35S: (PerkinElmer NEG030X), diluted in assay buffer to give 0.1 nM.
(§3) Membranes were mixed with GDP (volume:volume 1:1) and incubated for at least 15 min on ice. In parallel, GTPγ[^35S] is mixed with the beads (volume:volume 1:1) just before starting the reaction.
(§4) To determine agonist activity, the following reagents were added in the wells of an Optiplate (Perkin Elmer): 50 μL of test or reference ligand, 10 μL of assay buffer, 20 μl of the membranes:GDP mix, and 20 μL of the GTPγ[^35S]:beads mix. EC50 values were used to determine whether a compound acted as an agonist.
(§5) To determine antagonist activity, the following reagents were added in the wells of an Optiplate (Perkin Elmer): 50 μL of test or reference ligand, 20 μL of the membranes:GDP mix, then the plate is incubated 15 minutes at room temperature. After incubation, 10 μL of reference agonist at historical EC80 (final concentration) was added, followed by 20 μL of the GTPγ[^35S]:beads mix.
(§6) The plates were covered with a top seal, mixed on an orbital shaker for 2 min, and then incubated for 1 hour at room temperature. Then the plates were centrifuged for 10 min at 2000 rpm, incubated at room temperature 1 hour and counted for 1 min/well with a PerkinElmer TopCount reader. IC50 values were used to determine whether a compound acted as an antagonist.
(In general: Scintillation proximity formats need no separation of bound from free tracer.)

Assay [3] has as its target Dopamine D2L receptor (Homo sapiens, UniProt P14416). Described as above. The format is biochemical. Here is the method: as §1, §2
(§7) D2L • Assay buffer: 20 mM HEPES pH 7.4; 100 mM NaCl, 10 μg/ml saponin, 30 mM MgCl2, 0.1% protease-free BSA; • Membranes: recombinant D2L membrane extracts thawed on ice and diluted in assay buffer to give 1 mg/ml (10 μg/well) and kept on ice; • GDP: diluted in assay buffer to give a 3 μM final assay concentration; • Beads: PVT-WGA (Perkin Elmer, RPNQ001), diluted in assay buffer at 25 mg/ml (0.25 mg/well); and • GTPγ^35S: (PerkinElmer NEG030X), diluted in assay buffer to give 0.1 nM. D3 • Assay buffer: 20 mM HEPES pH 7.4; 100 mM NaCl, 10 μg/ml saponin, 1 mM MgCl2, 0.1% protease-free BSA; • Membranes: recombinant D3 membrane extracts thawed on ice and diluted in assay buffer to give 1 mg/ml (10 μg/well) and kept on ice; • GDP: diluted in assay buffer to give a 1 μM final assay concentration; • Beads: PVT-WGA (Perkin Elmer, RPNQ001), diluted in assay buffer at 50 mg/ml (0.5 mg/well); and • GTPγ^35S: (PerkinElmer NEG030X), diluted in assay buffer to give 0.1 nM.
as §3, §4, §5, §6

Assay [4] has as its target Dopamine D3 receptor (Homo sapiens, UniProt P35462). The description is as above. The format is biochemical. Here is the method: as §1, §2, §7, §3, §4, §5, §6
The target in assay [5] is Serotonin 5-HT1B receptor (Homo sapiens, UniProt P28222). The assay is described as above. Type of assay: biochemical. The method, then: as §1, §2
5-HT1B • Assay buffer: 20 mM HEPES pH 7.4; 100 mM NaCl, 10 μg/ml saponin, 3 mM MgCl2; • Membranes: recombinant 5-HT1B membrane extracts thawed on ice and diluted in assay buffer to give 1 mg/ml (10 μg/well) and kept on ice; • GDP: diluted in assay buffer to give a 3 μM final assay concentration; • Beads: PVT-WGA (Perkin Elmer, RPNQ001), diluted in assay buffer at 50 mg/ml (0.5 mg/well); and • GTPγ^35S: (PerkinElmer NEG030X), diluted in assay buffer to give 0.1 nM.
as §3, §4, §5, §6

Setting [6] is: Antagonist Activity (IC50), 5-HT7, CHO-K1 cells, vs reference agonist at EC80.
[7] abbreviates: IC50 value for the Serotonin 5-HT7 receptor, antagonist mode, bound stated.
The mark [8] stands for this setting: Antagonist Activity (IC50), 5-HT1D, membrane extracts, vs reference agonist at EC80.
[9] abbreviates: IC50 value for the Serotonin 5-HT1D receptor, antagonist mode, bound stated.
The mark [10] stands for this setting: Agonist Activity (EC50), D2L, membrane extracts.
[11] abbreviates: Antagonist Activity (IC50), D2L, membrane extracts, vs reference agonist at EC80.
Where [12] appears, read: IC50 value for the Dopamine D2L receptor, antagonist mode, bound stated.
Where [13] appears, read: Agonist Activity (EC50), D3, membrane extracts.
[14] abbreviates: Antagonist Activity (IC50), D3, membrane extracts, vs reference agonist at EC80.
The mark [15] stands for this setting: EC50 value for the Dopamine D3 receptor, agonist mode, bound stated.
Setting [16] is: IC50 value for the Dopamine D3 receptor, antagonist mode, bound stated.
[17] abbreviates: Antagonist Activity (IC50), 5-HT1B, membrane extracts, vs reference agonist at EC80.
[18] abbreviates: IC50 value for the Serotonin 5-HT1B receptor, antagonist mode, bound stated.
The mark [19] stands for this setting: EC50 value for the Dopamine D2L receptor, agonist mode, bound stated.

T1 sequence (P34969 whole entry): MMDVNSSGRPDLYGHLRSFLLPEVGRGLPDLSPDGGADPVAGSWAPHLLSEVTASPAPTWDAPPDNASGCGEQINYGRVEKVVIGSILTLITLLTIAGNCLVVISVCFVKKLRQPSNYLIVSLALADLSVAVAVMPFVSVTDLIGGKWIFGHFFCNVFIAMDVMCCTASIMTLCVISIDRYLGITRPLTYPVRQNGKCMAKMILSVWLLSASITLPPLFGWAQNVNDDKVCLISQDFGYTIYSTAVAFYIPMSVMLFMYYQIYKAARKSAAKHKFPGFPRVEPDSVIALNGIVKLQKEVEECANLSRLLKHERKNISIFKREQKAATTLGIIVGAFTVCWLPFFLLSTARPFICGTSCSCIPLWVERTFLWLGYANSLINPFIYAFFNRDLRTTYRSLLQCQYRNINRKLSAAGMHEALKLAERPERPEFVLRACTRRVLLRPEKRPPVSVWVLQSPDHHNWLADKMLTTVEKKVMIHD
Chain of Dopamine D3 receptor (P35462 whole entry): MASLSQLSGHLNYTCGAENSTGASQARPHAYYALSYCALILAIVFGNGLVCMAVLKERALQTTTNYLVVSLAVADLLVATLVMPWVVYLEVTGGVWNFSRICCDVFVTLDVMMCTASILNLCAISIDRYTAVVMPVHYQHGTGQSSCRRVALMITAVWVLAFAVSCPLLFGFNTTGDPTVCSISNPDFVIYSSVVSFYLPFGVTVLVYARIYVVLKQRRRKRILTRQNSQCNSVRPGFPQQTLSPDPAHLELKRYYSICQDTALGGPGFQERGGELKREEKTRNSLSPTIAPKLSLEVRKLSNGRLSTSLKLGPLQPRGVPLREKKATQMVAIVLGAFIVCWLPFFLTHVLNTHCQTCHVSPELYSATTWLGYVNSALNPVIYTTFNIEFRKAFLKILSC
Chain of Dopamine D2L receptor (P14416 whole entry): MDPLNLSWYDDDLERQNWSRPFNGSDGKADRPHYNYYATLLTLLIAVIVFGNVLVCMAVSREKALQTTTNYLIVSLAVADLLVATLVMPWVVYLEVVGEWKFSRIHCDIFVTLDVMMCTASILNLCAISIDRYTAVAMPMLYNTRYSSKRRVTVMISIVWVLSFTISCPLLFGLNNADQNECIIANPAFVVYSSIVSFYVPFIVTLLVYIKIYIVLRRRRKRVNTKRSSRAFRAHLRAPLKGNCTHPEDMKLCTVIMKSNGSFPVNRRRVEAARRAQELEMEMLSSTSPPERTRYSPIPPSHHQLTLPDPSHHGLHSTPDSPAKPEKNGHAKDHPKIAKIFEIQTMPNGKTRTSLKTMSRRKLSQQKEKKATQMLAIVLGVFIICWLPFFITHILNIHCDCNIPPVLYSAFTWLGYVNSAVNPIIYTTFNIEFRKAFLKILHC
Chain of Serotonin 5-HT1D receptor (P28221 whole entry): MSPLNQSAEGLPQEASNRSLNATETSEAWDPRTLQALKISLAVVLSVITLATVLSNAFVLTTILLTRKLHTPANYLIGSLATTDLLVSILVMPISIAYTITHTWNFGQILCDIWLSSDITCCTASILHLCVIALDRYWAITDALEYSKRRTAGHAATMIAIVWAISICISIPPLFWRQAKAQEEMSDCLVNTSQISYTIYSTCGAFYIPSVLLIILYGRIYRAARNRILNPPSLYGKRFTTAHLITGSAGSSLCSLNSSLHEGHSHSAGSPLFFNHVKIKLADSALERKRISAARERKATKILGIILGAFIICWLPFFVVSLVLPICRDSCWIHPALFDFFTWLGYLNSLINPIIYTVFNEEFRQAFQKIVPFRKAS
Chain of Serotonin 5-HT1B receptor (P28222 whole entry): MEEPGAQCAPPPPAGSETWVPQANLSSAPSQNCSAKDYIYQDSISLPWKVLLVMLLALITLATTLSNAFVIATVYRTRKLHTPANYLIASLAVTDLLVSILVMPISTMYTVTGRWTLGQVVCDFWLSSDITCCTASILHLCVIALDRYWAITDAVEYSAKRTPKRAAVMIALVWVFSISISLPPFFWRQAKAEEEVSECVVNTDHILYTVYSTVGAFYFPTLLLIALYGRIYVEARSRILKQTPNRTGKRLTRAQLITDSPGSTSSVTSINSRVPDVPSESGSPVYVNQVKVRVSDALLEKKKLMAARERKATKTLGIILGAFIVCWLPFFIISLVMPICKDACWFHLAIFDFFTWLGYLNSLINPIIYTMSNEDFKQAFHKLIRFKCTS

With `CCN(CC(F)(F)F)C(=O)N[C@H]1C[C@@H]2c3cccc4[nH]c(C5CC5)c(c34)C[C@H]2N(C)C1` [Compound A17H, 3-((6aR,9S,10aR)-5-cyclopropyl-7-methyl-4,6,6a,7,8,9,10,10a-octahydroindolo[4,3-fg]quinolin-9-yl)-1-ethyl-1-(2,2,2-trifluoroethyl)urea], the concentration for half-maximal inhibition (IC50) (usually the midpoint of a concentration-inhibition curve) is 140 nM in assay [1] (setting [6]); under 1000 nM in assay [1] (setting [7]); 50 nM in assay [2] (setting [8]); under 1000 nM in assay [2] (setting [9]); 4.2 nM in assay [3] (setting [11]); under 1000 nM in assay [3] (setting [12]). The IC50 in assay [4] (setting [14]) is 11 nM; in assay [4] (setting [16]), under 1000 nM. The EC50 (in general, the concentration needed to bring the measured effect to its halfway point) was 1.1 nM in assay [3] (setting [10]), 8.2 nM in assay [4] (setting [13]) and under 1000 nM in assay [4] (setting [15]).
For `CCN(CC)C(=O)N[C@H]1C[C@@H]2c3cccc4[nH]c(Br)c(c34)C[C@H]2N(C)C1` [Compound A8H, 3-((6aR,9S, 10aR)-5-bromo-7-methyl-4,6,6a,7,8,9,10,10a-octahydroindolo[4,3-fg]quinolin-9-yl)-1,1-diethylurea], the IC50 in assay [1] (setting [6]) was 110 nM; in assay [1] (setting [7]) it was under 1000 nM; in assay [5] (setting [17]), 410 nM; in assay [5] (setting [18]), under 1000 nM; in assay [2] (setting [8]), 8 nM; in assay [2] (setting [9]) it was under 1000 nM. For the same compound, the IC50 in assay [3] (setting [11]) is 3.5 nM; in assay [3] (setting [12]) it was under 1000 nM; in assay [4] (setting [14]), 9.3 nM; in assay [4] (setting [16]) it was under 1000 nM. The EC50 is 1.1 nM in assay [3] (setting [10]) and under 1000 nM in assay [3] (setting [19]).
`CCN(CC)C(=O)N[C@H]1C[C@@H]2c3cccc4[nH]c(C(F)(F)F)c(c34)C[C@H]2N(C)C1` [Compound A9H, 1,1-diethyl-3-((6aR,9S,10aR)-7-methyl-5-(trifluoromethyl)-4,6,6a,7,8,9,10,10a-octahydroindolo[4,3-fg]quinolin-9-yl)urea]: the IC50 in assay [1] (setting [6]) is 190 nM; in assay [1] (setting [7]), under 1000 nM; in assay [5] (setting [17]), 110 nM; in assay [5] (setting [18]), under 1000 nM; in assay [2] (setting [8]), 10 nM; in assay [2] (setting [9]) it was under 1000 nM. Besides, the half-inhibitory concentration (IC50) in assay [3] (setting [11]) is 42 nM; in assay [3] (setting [12]), under 1000 nM; in assay [4] (setting [14]) it was 13 nM; in assay [4] (setting [16]), under 1000 nM. Also, the EC50 in assay [3] (setting [10]) was 4.6 nM; in assay [3] (setting [19]), under 1000 nM.
For the compound `CC[C@@H](CO)NC(=O)[C@@H]1C[C@@H]2c3cccc4c3c(c(C3CC3)n4C)C[C@H]2N(C)C1` [Compound D13H, (6aR,9R,10aR)-5-cyclopropyl-N—((S)-1-hydroxybutan-2-yl)-4,7-dimethyl-4,6,6a,7,8,9,10,10a-octahydroindolo[4,3-fg]quinoline-9-carboxamide], the EC50 is 40 nM in assay [1]; 430 nM in assay [5] (Agonist Activity (EC50), 5-HT1B, membrane extracts); under 1000 nM in assay [5] (EC50 value for the Serotonin 5-HT1B receptor, agonist mode, bound stated); 11 nM in assay [2] (Agonist Activity (EC50), 5-HT1D, membrane extracts); under 1000 nM in assay [2] (EC50 value for the Serotonin 5-HT1D receptor, agonist mode, bound stated); 170 nM in assay [3] (setting [10]). The EC50 is under 1000 nM in assay [3] (setting [19]), 48 nM in assay [4] (setting [13]) and under 1000 nM in assay [4] (setting [15]). Moreover, the IC50 in assay [1] (setting [6]) was 780 nM; in assay [1] (setting [7]), under 1000 nM; in assay [4] (setting [14]) it was 400 nM; in assay [4] (setting [16]), under 1000 nM.
For `CCN(CC(F)(F)F)C(=O)N[C@H]1C[C@@H]2c3cccc4[nH]c(C(F)(F)F)c(c34)C[C@H]2N(C)C1` [Compound A16H, 1-ethyl-3-((6aR,9S,10aR)-7-methyl-5-(trifluoromethyl)-4,6,6a,7,8,9,10,10a-octahydroindolo[4,3-fg]quinolin-9-yl)-1-(2,2,2-trifluoroethyl)urea], the IC50 in assay [1] (CHO-K1 cells, vs reference agonist at EC80, read-out: Antagonist Activity (IC50), 5-HT7) is 380 nM; in assay [1] (setting [7]), under 1000 nM; in assay [5] (setting [18]), under 1000 nM; in assay [5] (membrane extracts, vs reference agonist at EC80, read-out: Antagonist Activity (IC50), 5-HT1B), 340 nM; in assay [2] (setting [9]), under 1000 nM; in assay [2] (membrane extracts, vs reference agonist at EC80, read-out: Antagonist Activity (IC50), 5-HT1D), 14 nM. The IC50 is under 1000 nM in assay [3] (setting [12]); 130 nM in assay [3] (membrane extracts, vs reference agonist at EC80, read-out: Antagonist Activity (IC50), D2L); under 1000 nM in assay [4] (setting [16]); 55 nM in assay [4] (membrane extracts, vs reference agonist at EC80, read-out: Antagonist Activity (IC50), D3).
